{"source": "paper PMC6269118", "about": "“Populene D Analogues: Design, Concise Synthesis and Antiproliferative Activity” (Molecules, 2012)", "origin": "cited, not measured here", "set-up_in_all_cases": "method as in PMID 18553924", "details_in_all_cases": "cited from earlier work", "key": {"[1]": {"tested_on": "breast cancer (MCF-7)"}, "[2]": {"tested_on": "cervical cancer (HeLa)"}, "[3]": {"tested_on": "B. subtilis"}, "[4]": {"tested_on": "oral cancer (KB)"}, "[5]": {"tested_on": "colon cancer (HT-29)"}}, "data": [{"smiles": "Cc1cc2c(c(O)c1O)[C@H](C)CC1=C2[C@@H](C)COC1(C)C", "note": "[Populene D]", "values": [{"measurement": "IC50", "setting": "[1]", "value": 0.95, "unit": "µg/mL"}, {"measurement": "IC50", "setting": "[2]", "value": 1.85, "unit": "µg/mL"}, {"measurement": "MIC", "setting": "[3]", "value": 4.69, "unit": "µg/mL"}, {"measurement": "IC50", "setting": "[4]", "value": 3.10, "unit": "µg/mL"}, {"measurement": "IC50", "setting": "[5]", "value": 2.37, "unit": "µg/mL"}]}]}
